Laboratory results reported in patent US9115092B2, “Substituted quinazoline and pyrido-pyrimidine derivatives” (Asana Biosciences, LLC, priority 2010, dated 2015).

Key:
[1] = test system: pAKT(5473) (phosphorylated at serine 473), PC3 cells; assay: In-cell Western assay, pAKT(5473) in PC3 cells; assay type: cell-based; details: Homo sapiens, PC-3, In-cell Western, read-out: pAkt-S473
Outline: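 Overnight-seeded PC3 cells were treated 2 h with serially diluted compound, then fixed and immunostained with phospho-specific primary antibodies and Eu-labelled secondary. Time-resolved Eu signal read at 615 nm (ex 340 nm), normalised by Hoechst 33258 staining (ex 355/em 460 nm); IC50 from sigmoidal dose-response fit.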

PC3 cells = assay: XTT assay for cell viability, PC3 cells; assay type: cell-based, human; details: Homo sapiens, PC-3, cell viability
Outline: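 PC3 cells seeded at 1000 cells/well, grown 24 h, then exposed to serial dilutions of compound for 96 h. Viability read by XTT dye at 37° C, absorbance 465 nm. EC50 from sigmoidal dose-response fit.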

[2] = molecular target: T1, PI3Kα (wild-type), P110/P85α (Homo sapiens, UniProt P42336); assay: PI3 Kinase TR-FRET assay, PI3Kα (wild-type); assay type: biochemical
T1 construct: made in house; host or cells: SF9 insect cells
T1 sequence (P42336 whole entry): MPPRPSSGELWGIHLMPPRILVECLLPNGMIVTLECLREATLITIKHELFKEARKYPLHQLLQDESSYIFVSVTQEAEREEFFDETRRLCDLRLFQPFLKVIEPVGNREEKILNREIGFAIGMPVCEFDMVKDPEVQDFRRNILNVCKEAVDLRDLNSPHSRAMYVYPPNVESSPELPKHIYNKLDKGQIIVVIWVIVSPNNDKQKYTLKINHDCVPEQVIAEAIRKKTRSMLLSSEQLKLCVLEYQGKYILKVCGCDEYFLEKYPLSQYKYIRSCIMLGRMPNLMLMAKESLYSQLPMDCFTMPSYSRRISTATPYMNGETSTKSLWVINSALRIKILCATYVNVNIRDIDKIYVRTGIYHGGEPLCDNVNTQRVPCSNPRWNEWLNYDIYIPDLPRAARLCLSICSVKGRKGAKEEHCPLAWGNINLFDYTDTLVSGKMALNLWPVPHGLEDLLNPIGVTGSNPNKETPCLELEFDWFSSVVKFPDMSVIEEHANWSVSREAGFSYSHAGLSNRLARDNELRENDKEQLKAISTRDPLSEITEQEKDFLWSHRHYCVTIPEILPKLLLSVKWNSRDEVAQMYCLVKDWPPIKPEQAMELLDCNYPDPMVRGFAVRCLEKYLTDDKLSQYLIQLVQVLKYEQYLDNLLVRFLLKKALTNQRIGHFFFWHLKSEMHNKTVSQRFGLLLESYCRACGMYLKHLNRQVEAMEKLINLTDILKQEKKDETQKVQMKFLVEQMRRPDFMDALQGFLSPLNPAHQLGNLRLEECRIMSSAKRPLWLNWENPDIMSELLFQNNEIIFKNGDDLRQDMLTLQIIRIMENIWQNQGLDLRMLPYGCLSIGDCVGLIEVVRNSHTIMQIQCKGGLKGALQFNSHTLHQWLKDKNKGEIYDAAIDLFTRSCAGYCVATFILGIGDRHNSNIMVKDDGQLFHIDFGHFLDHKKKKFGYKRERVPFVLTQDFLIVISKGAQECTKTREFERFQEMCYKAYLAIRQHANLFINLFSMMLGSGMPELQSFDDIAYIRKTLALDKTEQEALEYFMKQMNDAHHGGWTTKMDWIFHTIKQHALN
T1 sequence (P27986 whole entry partner): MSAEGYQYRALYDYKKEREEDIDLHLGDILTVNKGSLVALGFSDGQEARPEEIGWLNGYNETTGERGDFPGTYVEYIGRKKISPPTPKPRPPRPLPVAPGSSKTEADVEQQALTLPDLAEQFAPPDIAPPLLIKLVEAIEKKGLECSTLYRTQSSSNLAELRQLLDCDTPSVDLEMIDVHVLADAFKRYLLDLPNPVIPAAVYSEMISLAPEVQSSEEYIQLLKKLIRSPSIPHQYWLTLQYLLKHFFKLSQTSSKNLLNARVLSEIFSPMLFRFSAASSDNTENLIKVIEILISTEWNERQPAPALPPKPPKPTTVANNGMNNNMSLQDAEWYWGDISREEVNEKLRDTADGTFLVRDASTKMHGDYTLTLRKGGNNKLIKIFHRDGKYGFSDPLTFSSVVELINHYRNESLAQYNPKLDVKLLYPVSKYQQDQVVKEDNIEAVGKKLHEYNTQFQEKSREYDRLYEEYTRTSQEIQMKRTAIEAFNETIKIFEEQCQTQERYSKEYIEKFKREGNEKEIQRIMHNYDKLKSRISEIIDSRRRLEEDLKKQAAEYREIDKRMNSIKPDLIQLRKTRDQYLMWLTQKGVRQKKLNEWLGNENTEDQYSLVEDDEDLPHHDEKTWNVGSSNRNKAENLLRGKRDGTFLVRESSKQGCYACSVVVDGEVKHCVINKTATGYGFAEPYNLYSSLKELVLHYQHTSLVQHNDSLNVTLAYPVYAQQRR
Outline: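 TR-FRET read-out of PIP3 formation via biotin-PIP3 displacement (665/615 nm ratio) gave IC50 curves. Enzyme: 5 ng wild-type P110/P85α from Sf9 cells, 60 min RT with compound and PIP2 (MgCl2 40 mM, DTT 5 mM), then 30 min RT kinase reaction at 10 μM ATP and 10 μM PIP2.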

mTOR kinase = molecular target: T2, mTOR kinase (Homo sapiens, UniProt P42345); assay: mTOR kinase TR-FRET assay; assay type: biochemical; details: read-out: mTO R
T2 construct: purchased Millipore, USA
Outline: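 TR-FRET read-out (340 nm excitation, 615/665 nm emission) of Thr389 phosphorylation of a ULight-labeled p70 S6K peptide (50 nM) by mTOR, 20 μM ATP, 60 min room temperature after 60 min compound preincubation. Buffer HEPES pH 7.5 with MnCl2, EGTA; IC50 by sigmoidal dose-response.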

| SMILES | IC50 [1] | IC50 (PC3 cells) | IC50 [2] | IC50 (mTOR kinase) |
| --- | --- | --- | --- | --- |
| CN(C)C(=O)c1ccc(NC(=O)Nc2ccc(-c3nc(N4CCOCC4)c4ccc(-c5cncnc5)cc4n3)cc2)cc1 [Example 1, N,N-Dimethyl-4-(3-{4-[4-morpholin-4-yl-7-pyrimidin-5-yl-quinazolin-2-yl)-phenyl]-ureido}-benzamide] | 100 to 500 nM | 100 to 500 nM | < 50 nM | < 50 nM |
| Cc1ccc(-c2ccc3c(N4CCOCC4)nc(-c4ccc(NC(=O)Nc5ccc(C(=O)N(C)C)cc5)cc4)nc3c2)o1 [Example 2, N,N-Dimethyl-4-(3-{4-[7-(5-methyl-furan-2-yl)-4-morpholin-4-yl-quinazolin-2-yl]-phenyl}-ureido)-benzamide] | 100 to 500 nM | < 100 nM | < 50 nM | < 50 nM |
| CN(C)C(=O)c1ccc(NC(=O)Nc2ccc(-c3nc(N4CCOCC4)c4ccc(-c5ccco5)cc4n3)cc2)cc1 [Example 51, 4-{3-[4-(7-furan-2-yl-4-morpholin-4-yl-quinazolin-2-yl)-phenyl]-ureido}-N,N-dimethyl-benzamide] | – | 100 to 500 nM | < 50 nM | < 50 nM |
| CN(C)C(=O)c1ccc(NC(=O)Nc2ccc(-c3nc(N4CCOCC4)c4ccc(-c5cncnc5)cc4n3)cc2)c(F)c1 [Example 133, 3-fluoro-N,N-dimethyl-4-(3-(4-(4-morpholino-7-(pyrimidin-5-yl)quinazolin-2-yl)phenyl)ureido)-benzamide] | 501 to 5000 nM | 201 to 10000 nM | < 50 nM | < 50 nM |
| CN(C)C(=O)c1ccc(NC(=O)Nc2ccc(-c3nc(N4CCOCC4)c4ccc(-c5cccnc5F)cc4n3)cc2)c(F)c1 [Example 146, 3-fluoro-4-(3-(4-(7-(2-fluoropyridin-3-yl)-4-morpholino-quinazolin-2-yl)phenyl)ureido)-N,N-dimethyl-benzamide] | < 100 nM | 201 to 10000 nM | 50 to 200 nM | < 50 nM |
| CN(C)C(=O)c1ccc(NC(=O)Nc2ccc(-c3nc(N4CCOCC4)c4ccc(-c5cccnc5)cc4n3)cc2)c(F)c1 [Example 152, 3-fluoro-N,N-dimethyl-4-(3-(4-(4-morpholino-7-(pyridin-3-yl)quinazolin-2-yl)phenyl)ureido)-benzamide] | 501 to 5000 nM | < 100 nM | < 50 nM | < 50 nM |
